Results reported in patent publication US4592906A, “Ultra-violet absorbing compounds and compositions containing said compounds” (Graesser Laboratories, Ltd., priority 1984, dated 1986).
Converted amounts (≈) assume the structure as drawn.

Experiments:
Format in all cases: physicochemical
[1] = Solubility in liquid paraffin (mineral oil) at 23; conditions: organic solvent or mixture
Description: In particular, their solubilities in liquid paraffin are as follows:
Ester paraffin at 23 (% wt/vol)

[2] = Ultra-violet absorption (absorptivity, absorption maximum); conditions: for Absorptivity: c in g/l, path length b in centimeters
Protocol: The absorptivity of the following p-dimethylaminocinnamate was measured using the formula [formula] wherein c is concentration in g/l and b is path length in centimeters: […]

[3] = Physical state at room temperature
[4] = Miscibility with liquid paraffin (mineral oil), methanol and water

SMILES	solubility [1]	Absorptivity [2]	other results
CC(C)CCOC(=O)C=Cc1ccc(N(C)C)cc1 [(a), 3-methylbutyl-p-dimethylaminocinnamate]	24 mg/mL (≈ 91.8 mM)	–	–
CCOC(=O)C=Cc1ccc(N(C)C)cc1 [(2), ethyl p-dimethylaminocinnamate, reference compound]	–	125 L/g/cm	–
CCCCCCCCOC(=O)C=Cc1ccc(N(C)C)cc1 [(c), 1-octyl p-dimethylaminocinnamate, reference compound]	25 mg/mL (≈ 82.4 mM)	89 L/g/cm	–
CCCCC(CC)COC(=O)C=Cc1ccc(N(C)C)cc1 (centres unmarked) [Example 2-Ethylhexyl, 2-Ethylhexyl 4-dimethylaminocinnamate]	–	101 L/g/cm	physical state at room temperature [3]: liquid at room temperature; miscibility with liquid paraffin (mineral oil) [4]: completely miscible; miscibility with methanol [4]: completely miscible; λmax ([2]; Example 1, prepared product): 360 nm
CC1CC(OC(=O)C=Cc2ccc(N(C)C)cc2)CC(C)(C)C1 (centres unmarked) [(e), 3,3,5-trimethylcyclohexyl p-dimethylaminocinnamate]	12 mg/mL (≈ 38 mM)	–	–
CCCCCCCOC(=O)C=Cc1ccc(N(C)C)cc1 [(b), 1-heptyl p-dimethylaminocinnamate]	21 mg/mL (≈ 72.6 mM)	–	–
CC(CCOC(=O)C=Cc1ccc(N(C)C)cc1)CC(C)(C)C (centres unmarked) [(d), 3,5,5-trimethylhexyl p-dimethylaminocinnamate]	29 mg/mL (≈ 91.3 mM)	–	–
CCCCCCC(C)OC(=O)C=Cc1ccc(N(C)C)cc1 (centres unmarked) [Example 2-Octyl, 2-octyl 4-dimethylaminocinnamate]	–	95 L/g/cm	physical state at room temperature [3]: liquid at room temperature; miscibility with liquid paraffin (mineral oil) [4]: completely miscible; miscibility with methanol [4]: completely miscible
CCCCCCCCCCOC(=O)C=Cc1ccc(N(C)C)cc1 [(f), 1-decyl p-dimethylaminocinnamate]	21 mg/mL (≈ 63.3 mM)	–	–
